The text below walks through data of patent EP0318138A1, “Use of inorganic fluorides and nitrogen heterocyclics for enhancement of fluoride uptake in teeth” (SHISEIDO COMPANY LIMITED, priority 1987, dated 1989).

Experiment [1] can be described thus: Experiment 1: fluorine concentration in treated synthetic hydroxyapatite powder (microdiffusion analysis). The settings on record: pH 4.5, 37°C 5 minutes, then calcifying solution 60 minutes. The protocol:
(§1) Sodium fluoride and the heterocyclic compounds or the fatty acid ester (for comparison) listed in Tables 1 to 3 were added to an distilled water in the amounts shown in Tables 1 to 3, and the pH of the solution was adjusted to 4.5 with dilute hydrochloride or sodium hydroxide to form several preparations. Synthetic hydroxyapatite powder was incubated in each of the preparations at 37°C for 5 minutes and in a calcifying solution at 37°C for 60 minutes, and then filtrated and dried. The fluorine concentration in the treated synthetic hydroxyapatite powder was determined by microdiffusion analysis, and the amount of dissolved calcium after incubating the treated powder in an acetate buffer at 37°C for 60 minutes was measured. The inhibition (%) of decalcification was then calculated by the following equation, to evaluate the acid resistance thereof. [drawing 3]

Experiment [2] is described as follows: Experiment 1: inhibition of decalcification (dissolved calcium from treated powder in acetate buffer). The settings on record: acetate buffer 37°C 60 minutes. The protocol: as §1
The nature of experiment [3]: Experiment 2: decalcification in acidic gelatin gel observed by microradiography. Details: species or system bovine. Particulars: 4W in acidic gelatin gel. The method, then: (§2) A fluoride compound, and pyridoxine hydrochloride, 3-pyridylcarbinol or thiamine hydrochloride were added to distilled water, in amounts shown in table 4 to produce preparations. A bovine tooth (which had been ground to remove 200 µm of the surface and expose the enamel surface) was incubated in each preparation at 37°C for 5 minutes and in a calcifying solution at 37°C for 60 minutes, and then washed with tap water and dried. The fluorine concentration in the enamel of the fluoride-treated bovine tooth was determined by enamel biopsy. […] Considerable decalcification. x ... No inhibition of decalcification.

Experiment [4] is described as follows: Experiment 2: fluorine concentration in enamel of treated tooth by enamel biopsy. Also noted: species or system bovine. The method, then: as §2

`[F-].[Na+]` [Sodium fluoride]: the “Fluorine concentration (ppm)” value in experiment [1] (Sodium fluoride 0.2 %, pyridoxine hydrochloride 0 %) was 4910 ppm; in experiment [1] (Table 2, preparations in distilled water), 4910 ppm; in experiment [1] (Table 3, preparations in distilled water) it was 4796 ppm. The “Inhibition of decalcification (%)” value in experiment [2] (Sodium fluoride 0.2 %, pyridoxine hydrochloride 0 %, pH 4.5) was determined as 40.9%; in experiment [2] (Table 2, preparations pH 4.5), 40.9%; in experiment [2] (Table 3, preparations pH 4.5), 40.9%. In experiment [3], the Inhibition of decalcification result was “○”. For the same compound, the “F conc. in enamel” value in experiment [4] (1st Etch) is listed as 498 ppm; in experiment [4] (2nd etch), 309 ppm; in experiment [4] (3rd etch), 222 ppm; in experiment [4] (4th etch) it was 178 ppm; in experiment [4] (5th etch) it was 139 ppm.
